In US4965280A, “Antifungal carbinols” (E. I. Du Pont de Nemours and Company, priority 1989, dated 1990):
≈ marks a conversion by molar mass, not a printed value. Like-named read-outs stand apart in the source and are kept apart here.

Experiments:
[1] = system: Candida albicans ATCC 11651; assay: In vivo systemic Candida infection in mice, primary assay; set-up: species or system Candida albicans; CF-1 female mice; conditions: Candida albicans, 150 mg/kg per day, read-out: % Survival
Outline: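 CF-1 female mice (20 g, 10 per group) were infected IV with 0.2 ml of 1×10^7/ml C. albicans ATCC 11651, then given test compound subcutaneously at 50 or 150 mg/kg/day at 1 and 6 h post-infection and once daily for three more days. Survival was followed for 21 days against infected untreated mice; ≥70% protection at 14 days was scored active.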

[2] = system: Rhizoctonia solani; assay: Example F rice sheath blight; type: in vivo; conditions: Rhizoctonia solani, 144 h, read-out: disease control rating, Ex. F
Outline: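 Application rates were 100 or 20 ppm, delivered as a foliar spray to the point of run-off on rice seedlings. The formulation used 6% acetone in water with 250 ppm surfactant.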

[3] = system: Pythium aphanadermatum; assay: Example J cucumber damping off; type: in vivo; conditions: Pythium, 336 h; 5 kg/ha; read-out: disease control rating, Ex. J
Outline: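 Seeds and soil were inoculated with a mix of sand, cereal and Pythium aphanadermatum mycelium, the fungus responsible for cucumber damping off. They were kept in a growth chamber at 30° C. for 14 days, and disease was then rated to assess control.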

[4] = system: Rhizoctonia solani; assay: Example K cotton blight; type: in vivo; conditions: 336 h, 5 kg/ha, read-out: disease control rating, Ex. K
Method: […] Seeds and soil were then inoculated with a mixture of sand, cereal and mycelium of the fungus Rhizoctonia solani, causal agent of cotton blight, and incubated in a growth chamber at 30° C. for 14 days. Disease ratings were then made.

[5] = system: SCIRPUS; assay: Test C rice paddy; type: in vivo, Scirpus paludosus; conditions: Bolboschoenus maritimus, 504 h, 21 days, read-out: plant response; for pest or weed control at 64 g/ha: 0064 G/HA; for pest or weed control at 125 g/ha: 0125 G/HA; for pest or weed control at 250 g/ha: 0250 G/HA; for pest or weed control at 500 g/ha: 0500 G/HA
Excerpt: (§1) Sixteen cm diameter Airlite plastic pots were partially filled with Tama slit loam soil and the soil saturated with water. Japonica and Indica rice seedlings a the 2.0 to 2.5 leaf stage were transplanted into 1/3 of the pots. Into another third of the pots were transplanted seedling or sprouted tubers of water plantain (Alisma trivale), Scripus (Scirpus paludosus), Cyperus (Cyperus esculentus), and arrowhead (Sagittaria spp.). The remaining pots were planted with barnyardgrass (Echinochloa crusgalli) seeds and sprouted tubes of water chestnut (Eleocharis spp.). These weeds all represent major rice weeds or genera of weeds important in rice. Three to four days after planting, the water level was raised to 3 cm (about 1200 ml/pot) and maintained a this level throughout the test. Chemical treatments were applied directly to the paddy water, within 24 hours of raising the water, after being formulated in a nonphytotoxic solvent. The pots were maintained in the greenhouse.

[6] = system: YELLOW NUTSEDGE; assay: Test C rice paddy; type: in vivo, Cyperus esculentus; conditions: 21 days
Excerpt: as §1

[7] = system: G4646 CORN; assay: Test D Corn and Sorghum Herbicide Test; type: in vivo, Zea mays
[8] = system: COCKLEBUR; assay: Test D; type: in vivo, Xanthium pensylvanicum
[9] = system: REDROOT PIGWEED; assay: Test D; type: in vivo, Amaranthus retroflexus
[10] = system: Candida albicans ATCC 11651; assay: In vitro antifungal MIC, microtiter broth dilution; conditions: Candida albicans, ATCC11651, 24 h, read-out: MIC values, C. albicans, 30°, 24 hours
Method: In vitro activity (Table 5) is expressed in terms of the minimal inhibitory concentration (MIC) of the test compound which inhibits the growth of yeasts and fungi.
The target organisms, Candida albicans ATCC 11651 and Aspergillus fumigatus ATCC 28214 are standardized, [V. Bezjak, J. Clinical Micro., 21 509-512 (1984)], to a concentration of 10^7 organisms/ml and maintained at -70° until use. Test compounds are solubilized in dimethyl sulfoxide (DMSO) and diluted in Eagle's Minimum Essential Medium (EMEM) broth to achieve a final concentration of 200 μg/ml. Stock solutions of standard antifungal agents are stored at -70° and diluted in EMEM as required.
The in vitro assay utilizes a microtiter broth dilution technique [L. Polonelli and G. Morace, Mycopathologia, 86, 21-28 (1984)] and C. […] The appropriate wells are inoculated with the required organism (C. albicans at 1×10^4 organisms/ml and A. fumigatus at 5×10^5 organisms/ml) and the assay incubated at 30° for 24 hours.

C=C(c1ccccc1Cl)C(O)(Cn1cncn1)c1ccc(F)cc1F (centres unmarked) [Example 35]
responders at 150 mg/kg ([1]; ATCC11651, 168 h, day 7): 100% | responders at 150 mg/kg ([1]; ATCC11651, 336 h, day 14): 100% | responders at 150 mg/kg ([1]; ATCC11651, 504 h, day 21): 90% | pest or weed control at 100 ppm [2]: 100% | pest or weed control at 5000 g/ha [3]: 0% | pest or weed control at 5000 g/ha [4]: 0% | pest or weed control at 64 g/ha [5]: 0% | pest or weed control at 125 g/ha [5]: 0% | pest or weed control at 250 g/ha [5]: 0% | pest or weed control at 500 g/ha [5]: 0% | pest or weed control at 1000 g/ha [5]: 50% | plant response ([6]; 0064 G/HA): 0 | plant response ([6]; 0125 G/HA): 0 | plant response ([6]; 0250 G/HA): 60 | plant response ([6]; 0500 G/HA): 95 | plant response ([6]; 1000 G/HA): 100 | plant response ([7]; POSTEMERGENCE 0250 GM/HA): 0% | plant response ([7]; POSTEMERGENCE 0500 GM/HA): 0% | plant response ([7]; PREEMERGENCE 0064 GM/HA): 0% | plant response ([7]; PREEMERGENCE 0125 GM/HA): 0% | plant response ([7]; PREEMERGENCE 0250 GM/HA): 0% | plant response ([7]; PREEMERGENCE 0500 GM/HA): 0% | plant response ([8]; POSTEMERGENCE 0250 GM/HA): 0% | plant response ([8]; POSTEMERGENCE 0500 GM/HA): 30% | plant response ([8]; PREEMERGENCE 0064 GM/HA): 0% | plant response ([8]; PREEMERGENCE 0125 GM/HA): 0% | plant response ([8]; PREEMERGENCE 0250 GM/HA): 0% | plant response ([8]; PREEMERGENCE 0500 GM/HA): 20% | plant response ([9]; POSTEMERGENCE 0250 GM/HA): 30% | plant response ([9]; POSTEMERGENCE 0500 GM/HA): 70% | plant response ([9]; PREEMERGENCE 0064 GM/HA): 0% | plant response ([9]; PREEMERGENCE 0125 GM/HA): 0% | plant response ([9]; PREEMERGENCE 0250 GM/HA): 50% | plant response ([9]; PREEMERGENCE 0500 GM/HA): 98% | MIC [10]: 0.03 µg/mL (≈ 0.0829 µM)

C=C(c1ccccc1Cl)C(O)(Cn1cncn1)c1ccc(Cl)cc1Cl (centres unmarked) [Example 33, 2-(2,4-Dichlorophenyl)-3-(2-chlorophenyl)-1-(1H-1,2,4-triazol-1-yl)-3-buten-2-ol]
responders at 150 mg/kg ([1]; ATCC11651, 168 h, day 7): 100% | responders at 150 mg/kg ([1]; ATCC11651, 336 h, day 14): 100% | responders at 150 mg/kg ([1]; ATCC11651, 504 h, day 21): 100% | pest or weed control at 20 ppm ([2]; 20 PPM): 29% | pest or weed control at 100 ppm [2]: 60% | pest or weed control at 5000 g/ha [3]: 0% | pest or weed control at 5000 g/ha [4]: 0% | pest or weed control at 64 g/ha [5]: 0% | pest or weed control at 125 g/ha [5]: 0% | pest or weed control at 250 g/ha [5]: 0% | pest or weed control at 500 g/ha [5]: 0% | pest or weed control at 1000 g/ha [5]: 0% | plant response ([6]; 0064 G/HA): 0 | plant response ([6]; 0125 G/HA): 0 | plant response ([6]; 0250 G/HA): 0 | plant response ([6]; 0500 G/HA): 0 | plant response ([6]; 1000 G/HA): 40 | plant response ([7]; POSTEMERGENCE 0250 GM/HA): 0% | plant response ([7]; POSTEMERGENCE 0500 GM/HA): 0% | plant response ([7]; POSTEMERGENCE 1000 GM/HA): 0% | plant response ([7]; PREEMERGENCE 0250 GM/HA): 0% | plant response ([7]; PREEMERGENCE 0500 GM/HA): 0% | plant response ([7]; PREEMERGENCE 1000 GM/HA): 0% | plant response ([8]; POSTEMERGENCE 0250 GM/HA): 0% | plant response ([8]; POSTEMERGENCE 0500 GM/HA): 0% | plant response ([8]; POSTEMERGENCE 1000 GM/HA): 0% | plant response ([8]; PREEMERGENCE 0250 GM/HA): 0% | plant response ([8]; PREEMERGENCE 0500 GM/HA): 0% | plant response ([8]; PREEMERGENCE 1000 GM/HA): 0% | plant response ([9]; POSTEMERGENCE 0250 GM/HA): 0% | plant response ([9]; POSTEMERGENCE 0500 GM/HA): 0% | plant response ([9]; POSTEMERGENCE 1000 GM/HA): 0% | plant response ([9]; PREEMERGENCE 0250 GM/HA): 0% | plant response ([9]; PREEMERGENCE 0500 GM/HA): 0% | plant response ([9]; PREEMERGENCE 1000 GM/HA): 0% | MIC [10]: 0.03 µg/mL (≈ 0.076 µM)
